Laboratory results reported in ChEMBL document CHEMBL1201862, “PubChem BioAssay data set” (2004).
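Dose response: 5 concentrations. Exposure: 48 h. Format: 96-well plates. Endpoint: linear interpolation; highest concentration if not reached. Abbreviation: GI50, concentration required for 50% inhibition of growth.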 Calls of active or inactive are those of the source. Cut-off read from the data, not from the text of the source: active = GI50 up to about 1.1 µM and inactive = higher.

Experiments:
Experiment in all cases: NCI anticancer screen, dose series, 48 h
COLO 205 = system: COLO 205
EKVX = system: EKVX
HCT-15 = system: HCT-15
HOP-62 = system: HOP-62
HOP-92 = system: HOP-92
MCF7 = system: MCF7
MDA-MB-231 = system: MDA-MB-231
NCI-H460 = system: NCI-H460
NCI-H522 = system: NCI-H522
OVCAR-3 = system: OVCAR-3
OVCAR-5 = system: OVCAR-5
OVCAR-8 = system: OVCAR-8
SF-268 = system: SF-268
SF-295 = system: SF-295
SK-MEL-5 = system: SK-MEL-5
SN12C = system: SN12C
SW-620 = system: SW-620
UACC-257 = system: UACC-257
UO-31 = system: UO-31

| SMILES | GI50 (COLO 205) | GI50 (EKVX) | GI50 (HCT-15) | GI50 (HOP-62) | GI50 (HOP-92) | GI50 (MCF7) | GI50 (MDA-MB-231) | GI50 (NCI-H460) | GI50 (NCI-H522) | GI50 (OVCAR-3) | GI50 (OVCAR-5) | GI50 (OVCAR-8) | GI50 (SF-268) | GI50 (SF-295) | GI50 (SK-MEL-5) | GI50 (SN12C) | GI50 (SW-620) | GI50 (UACC-257) | GI50 (UO-31) |
| --- | --- | --- | --- | --- | --- | --- | --- | --- | --- | --- | --- | --- | --- | --- | --- | --- | --- | --- | --- |
| O=[N+]([O-])c1ccc(CSCc2ccc(Cl)cc2)cc1 | > 100 µM (inactive) | > 100 µM (inactive) | > 100 µM | > 100 µM (inactive) | 47.8 µM (inactive) | > 100 µM (inactive) | > 100 µM (inactive) | > 100 µM (inactive) | 20 µM (inactive) | > 100 µM (inactive) | > 100 µM (inactive) | > 100 µM (inactive) | > 100 µM (inactive) | > 100 µM (inactive) | > 100 µM (inactive) | > 100 µM (inactive) | > 100 µM (inactive) | > 100 µM (inactive) | > 100 µM (inactive) |
| CC1CCC2C(C)C3C(CC4C5CC=C6CC(OC7OC(CO)C(O)C(OC8OC(CO)C(O)C(O)C8O)C7OC7OC(C)C(O)C(O)C7O)CCC6(C)C5CCC43C)N2C1 (stereo not given) | 16.7 µM (inactive) | 9.27 µM (inactive) | 17.3 µM | 17.3 µM (inactive) | 17.5 µM (inactive) | 13.8 µM (inactive) | 13.6 µM (inactive) | 18.5 µM (inactive) | 15.1 µM (inactive) | 17.4 µM (inactive) | 14.3 µM (inactive) | 15 µM (inactive) | 15.9 µM (inactive) | 10.2 µM (inactive) | 18.1 µM (inactive) | 11.1 µM (inactive) | 15.6 µM (inactive) | 16.1 µM (inactive) | 6.37 µM (inactive) |
| CC(C)(C)OC(=O)c1ccc(NCc2cc(O)ccc2O)cc1 | 2.08 µM (inactive) | 2.62 µM (inactive) | 1.32 µM | 8.97 µM (inactive) | 1.34 µM (inactive) | 3.61 µM (inactive) | 2.31 µM (inactive) | 10.7 µM (inactive) | 0.24 µM (active) | 1.04 µM (active) | 6.58 µM (inactive) | 2.13 µM (inactive) | 3.44 µM (inactive) | 7.41 µM (inactive) | 3.65 µM (inactive) | 1.27 µM (inactive) | 3.36 µM (inactive) | 3.78 µM (inactive) | 1.22 µM (inactive) |
| CCOC(=O)C#Cc1ccc(C#CC(=O)OCC)cc1 | 6.21 µM (inactive) | 7.74 µM (inactive) | 1.81 µM | 3.81 µM (inactive) | 5.69 µM (inactive) | 1.54 µM (inactive) | 5.11 µM (inactive) | 5.13 µM (inactive) | 2.9 µM (inactive) | 2.77 µM (inactive) | 11.8 µM (inactive) | 3.49 µM (inactive) | 3.88 µM (inactive) | 13.5 µM (inactive) | 2.89 µM (inactive) | 3.21 µM (inactive) | 3.15 µM (inactive) | 22.1 µM (inactive) | 3.43 µM (inactive) |
| O=c1c2ncn(COCCCl)c2n(-c2ccccc2)c(=S)n1-c1ccccc1 | > 100 µM (inactive) | > 100 µM (inactive) | > 100 µM | > 100 µM (inactive) | > 100 µM (inactive) | > 100 µM (inactive) | > 100 µM (inactive) | > 100 µM (inactive) | > 100 µM (inactive) | > 100 µM (inactive) | > 100 µM (inactive) | > 100 µM (inactive) | > 100 µM (inactive) | > 100 µM (inactive) | > 100 µM (inactive) | > 100 µM (inactive) | > 100 µM (inactive) | > 100 µM (inactive) | 57.3 µM (inactive) |
| COC1=C(C)C(=O)c2c(c(COC(N)=O)c3n2CC(OC(C)=O)C3OC(C)=O)C1=O (stereo not given) | 0.116 µM (active) | 0.202 µM (active) | 0.0126 µM | 0.126 µM (active) | 0.186 µM (active) | 0.0301 µM (active) | 0.2 µM (active) | < 0.01 µM (active) | 0.0137 µM (active) | 0.09 µM (active) | 0.267 µM (active) | 0.0789 µM (active) | 0.0766 µM (active) | 0.0631 µM (active) | 0.133 µM (active) | 0.0944 µM (active) | 0.0206 µM (active) | 0.115 µM (active) | 0.15 µM (active) |
| c1ccc(COC2NCCN2Cc2ccccc2)cc1 (stereo not given) | > 100 µM (inactive) | 51.2 µM (inactive) | > 100 µM | > 100 µM (inactive) | > 100 µM (inactive) | > 100 µM (inactive) | > 100 µM (inactive) | > 100 µM (inactive) | > 100 µM (inactive) | > 100 µM (inactive) | > 100 µM (inactive) | > 100 µM (inactive) | > 100 µM (inactive) | > 100 µM (inactive) | > 100 µM (inactive) | > 100 µM (inactive) | > 100 µM (inactive) | 61 µM (inactive) | > 100 µM (inactive) |
| C[n+]1c2ccccc2n2c3ccccc3c(NCCCN3CCOCC3)c(C#N)c21 | 0.891 µM (active) | 2.9 µM (inactive) | 4.65 µM | 1.27 µM (inactive) | 62.8 µM (inactive) | 0.564 µM (active) | 0.804 µM (active) | 0.684 µM (active) | 0.652 µM (active) | 2.61 µM (inactive) | 1.44 µM (inactive) | 0.843 µM (active) | 1.11 µM (active) | 2.8 µM (inactive) | 2 µM (inactive) | 0.597 µM (active) | 0.849 µM (active) | 2.99 µM (inactive) | 2.95 µM (inactive) |
| Nc1ncnc2c1ccn2C/C=C/CO | > 100 µM (inactive) | > 100 µM (inactive) | > 100 µM | > 100 µM (inactive) | > 100 µM (inactive) | > 100 µM (inactive) | > 100 µM (inactive) | > 100 µM (inactive) | > 100 µM (inactive) | > 100 µM (inactive) | > 100 µM (inactive) | > 100 µM (inactive) | > 100 µM (inactive) | > 100 µM (inactive) | > 100 µM (inactive) | > 100 µM (inactive) | > 100 µM (inactive) | > 100 µM (inactive) | > 100 µM (inactive) |
| COc1ccc2cc3c4cc5c(cc4cc[n+]3cc2c1OC)OCO5 | 2.08 µM (inactive) | 6.22 µM (inactive) | 83.2 µM | 5.6 µM (inactive) | 18.1 µM (inactive) | 20 µM (inactive) | 23.4 µM (inactive) | 17.9 µM (inactive) | 3.63 µM (inactive) | 3.87 µM (inactive) | 47.5 µM (inactive) | 2.37 µM (inactive) | 2.94 µM (inactive) | 5.53 µM (inactive) | 3.39 µM (inactive) | 2.52 µM (inactive) | 5.27 µM (inactive) | 6.46 µM (inactive) | 36.3 µM (inactive) |
| C=C1OC(c2ccccc2NC)=NC12CCCCC2 | > 100 µM (inactive) | > 100 µM (inactive) | > 100 µM | > 100 µM (inactive) | > 100 µM (inactive) | > 100 µM (inactive) | > 100 µM (inactive) | > 100 µM (inactive) | > 100 µM (inactive) | > 100 µM (inactive) | > 100 µM (inactive) | > 100 µM (inactive) | > 100 µM (inactive) | > 100 µM (inactive) | > 100 µM (inactive) | > 100 µM (inactive) | > 100 µM (inactive) | > 100 µM (inactive) | > 100 µM (inactive) |
| CN1C(=O)[C@H](c2c[nH]c3ccccc23)[C@H](c2c[nH]c3ccccc23)C1=O | 1.33 µM (inactive) | 29.4 µM (inactive) | 24.8 µM | 27.7 µM (inactive) | > 35.9 µM (inactive) | 29.9 µM (inactive) | 4.4 µM (inactive) | 23.9 µM (inactive) | 34.2 µM (inactive) | 19.5 µM (inactive) | > 41.6 µM (inactive) | 31 µM (inactive) | 33.3 µM (inactive) | 26.1 µM (inactive) | 22 µM (inactive) | 44.2 µM (inactive) | 37.1 µM (inactive) | 29.5 µM (inactive) | 15.5 µM (inactive) |
| CC(C)C(OC(=O)c1ccc(NCC2=CC(=O)C=CC2=O)cc1)C(C)C | 2.79 µM (inactive) | 8.26 µM (inactive) | 2.97 µM | 18.3 µM (inactive) | 1.79 µM (inactive) | 7.93 µM (inactive) | 7.06 µM (inactive) | 14.6 µM (inactive) | 1.22 µM (inactive) | 4.12 µM (inactive) | 13.3 µM (inactive) | 3.03 µM (inactive) | 12.1 µM (inactive) | 13.2 µM (inactive) | 10.6 µM (inactive) | 9.16 µM (inactive) | 6.76 µM (inactive) | 7.76 µM (inactive) | 1.82 µM (inactive) |
| CC[C@@H](/C=C\CCC(=O)C[C@H](O)CCC=C(C)C)O[Si](C(C)C)(C(C)C)C(C)C | 71.6 µM (inactive) | > 100 µM (inactive) | > 100 µM | > 100 µM (inactive) | 81.7 µM (inactive) | 79.4 µM (inactive) | > 100 µM (inactive) | > 100 µM (inactive) | 48.6 µM (inactive) | > 100 µM (inactive) | > 100 µM (inactive) | > 100 µM (inactive) | > 100 µM (inactive) | > 100 µM (inactive) | 69 µM (inactive) | > 100 µM (inactive) | > 100 µM (inactive) | 85.1 µM (inactive) | > 100 µM (inactive) |
| N=C(N)N/N=C/c1c(-c2cc([N+](=O)[O-])c(Cl)cc2Cl)nc2n1CCS2 | 2.66 µM (inactive) | 40.9 µM (inactive) | 47 µM | 42.4 µM (inactive) | 20.7 µM (inactive) | 2.67 µM (inactive) | 24.1 µM (inactive) | 27.6 µM (inactive) | 17 µM (inactive) | 8.04 µM (inactive) | 79.3 µM (inactive) | 26.5 µM (inactive) | 9.93 µM (inactive) | 25.6 µM (inactive) | 29.9 µM (inactive) | 23.4 µM (inactive) | 3.97 µM (inactive) | 20.7 µM (inactive) | 18.2 µM (inactive) |
